Structures can show the parent of a compound that is named as a salt. Where two headings read alike, the source gives them in different places.
Columns and labels:
[1] = target: T1, recombinant human SK (Homo sapiens, UniProt Q9NYA1); test: Sphingosine kinase screen / inhibition of recombinant human SK ([3H]sphingosine to [3H]S1P); assay type: biochemical; settings: for inhibition at 5 µg/mL: read-out: inhibited SK activity by %; for IC50: mean ± SD of triplicate experiments, read-out: SK, concentration required to inhibit enzyme activity by 50%
T1 construct: glutathione-S-transferase (GST); made in house; host or cells: bacteria (PGEX bacterial expression vector, Pharmacia)
Experimental: This method involved incubating [^3H]sphingosine with 1 mM ATP under conditions defined in the reference, followed by extraction of the assay mixture with chloroform:methanol (2:1) under basic conditions. […] Radioactivity in aliquots of the aqueous phase was then quantified as a measure of [^3H]S1P formation.
Varying concentrations of the indicated compounds were evaluated for inhibition of recombinant human SK as described above.

[2] = target: ERK2 (Homo sapiens, UniProt P28482); test: Kinase selectivity panel: ERK2; assay type: biochemical; settings: for IC50: human isoform, mean ± SD of triplicate experiments, read-out: ERK2, concentration required to inhibit enzyme activity by 50%
Experimental: (§1) Thus potencies of each inhibitor were determined for human isoforms of ERK2, PI3K and PKCα. SK inhibition data is provided for comparison. Data represent the concentrations required to inhibit enzyme activity by 50%, and are the mean ±SD of triplicate experiments. Results designated as “None” indicate that no inhibition was detected at concentrations up to 60 μM.

[3] = test system: MCF-7 human breast adenocarcinoma cells; test: Cytotoxicity, SRB binding assay, MCF-7; assay type: cell-based; settings: MCF7, 48 h treatment, mean ± SD
Experimental: (§2) The SK inhibitor compounds of the invention are antiproliferative and induce apoptosis in replicating cells. In order to assess the compounds' efficacy in intact cells, the compounds were evaluated for cytotoxicity using a panel of human cancer cell lines. These experiments followed methods that have been extensively used (see for, example, Smith et al., Cancer Res. 54: 3779–3784 (1994); Smith et al., Oncology Res. 6: 211–218 (1994); and Lawrence et al., J. Med. Chem. 44: 594–601 (2001). Cell lines tested included T-24 human bladder carcinoma cells, MCF-7 human breast adenocarcinoma cells, MCF-7/VP cells, which are a subline of MCF-7 cells that is resistant to several anticancer drugs due to overexpression of the transport protein MRP 1, and NCI/ADR, a cell line resistant to many anticancer drugs due to overexpression of the drug transporter P-glycoprotein.
(§3) The indicated cell lines were treated with varying doses of compounds 1–4 for 48 h. Cell survival was then determined using the SRB binding assay (Skehan et al., 1990, J. Natl. Cancer Inst. 82: 1107–1112), and the concentration of compound that inhibited proliferation by 50% was calculated. Values represent the mean ±SD for replicate samples.
(§4) As these transporters are often overexpressed in tumor cells, particularly after the patient has been treated with cytotoxic drugs, the SK inhibiting compounds of the invention are effective therapeutic agents for resistant tumors.

[4] = target: PKCα (Homo sapiens, UniProt P17252); test: Kinase selectivity panel: PKCα; assay type: biochemical; settings: for IC50: human isoform, mean ± SD of triplicate experiments, read-out: PKCα, concentration required to inhibit enzyme activity by 50%
Experimental: as §1

[5] = target: T2, PI3K; test: Kinase selectivity panel: PI3K (lipid kinase); assay type: biochemical, human; settings: for IC50: human isoform, mean ± SD of triplicate experiments, read-out: PI3K, concentration required to inhibit enzyme activity by 50%
T2 construct: other: human isoform; mean ± SD of triplicate experimen; activity toward PI3K (in words)
Experimental: Thus potencies of each inhibitor were determined for human isoforms of ERK2, PI3K and PKCα. […] Data represent the concentrations required to inhibit enzyme activity by 50%, and are the mean ±SD of triplicate experiments. Results designated as “None” indicate that no inhibition was detected at concentrations up to 60 μM.

[6] = test system: NCI/ADR cells (P-glycoprotein overexpression); test: Cytotoxicity, SRB binding assay, NCI/ADR; assay type: cell-based; settings: Homo sapiens, NCI/ADR-RES, 48 h treatment, mean ± SD
Experimental: as §2, §3, §4

[7] = test system: T-24 human bladder carcinoma cells; test: Cytotoxicity, SRB binding assay, T24; assay type: cell-based; settings: 48 h treatment, mean ± SD
Experimental: as §2, §3, §4

[8] = test system: MCF-7/VP cells (MRP 1 overexpression); test: Cytotoxicity, SRB binding assay, MCF-7/VP; assay type: cell-based; settings: Homo sapiens, MCF7-VP, 48 h treatment, mean ± SD
Experimental: as §2, §3, §4

[9] = test system: mouse JC mammary adenocarcinoma cells; test: Antitumor activity in syngeneic tumor model; assay type: in vivo, Balb/c mice; settings: 75 mg/kg intraperitoneally on days 1, 5, 9 and 15
Experimental: These cells express elevated levels of SK activity relative to non-transformed cells, as well as the multidrug resistance phenotype due to P-glycoprotein activity (data not shown). Balb/c mice, 6–8 weeks old, were injected subcutaneously with […] suspended in PBS. […] The insert indicates the body weight of the animals during this experiment.

[10] = 5 μg/ml of compound (corresponds to 10–25 μM), 1 mM ATP

T1 sequence (Q9NYA1 whole entry): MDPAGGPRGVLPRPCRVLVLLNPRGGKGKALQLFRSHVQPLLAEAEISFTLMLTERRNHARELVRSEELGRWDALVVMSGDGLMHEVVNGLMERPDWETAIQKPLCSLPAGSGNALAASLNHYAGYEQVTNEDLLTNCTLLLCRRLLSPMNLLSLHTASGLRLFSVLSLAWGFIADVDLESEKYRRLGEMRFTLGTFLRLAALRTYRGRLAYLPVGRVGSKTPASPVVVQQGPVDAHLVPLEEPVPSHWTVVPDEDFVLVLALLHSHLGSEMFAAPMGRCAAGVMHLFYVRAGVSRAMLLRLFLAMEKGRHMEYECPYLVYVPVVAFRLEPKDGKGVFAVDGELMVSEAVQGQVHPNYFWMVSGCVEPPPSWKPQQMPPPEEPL
Sequence of ERK2 (P28482 whole entry, canonical isoform): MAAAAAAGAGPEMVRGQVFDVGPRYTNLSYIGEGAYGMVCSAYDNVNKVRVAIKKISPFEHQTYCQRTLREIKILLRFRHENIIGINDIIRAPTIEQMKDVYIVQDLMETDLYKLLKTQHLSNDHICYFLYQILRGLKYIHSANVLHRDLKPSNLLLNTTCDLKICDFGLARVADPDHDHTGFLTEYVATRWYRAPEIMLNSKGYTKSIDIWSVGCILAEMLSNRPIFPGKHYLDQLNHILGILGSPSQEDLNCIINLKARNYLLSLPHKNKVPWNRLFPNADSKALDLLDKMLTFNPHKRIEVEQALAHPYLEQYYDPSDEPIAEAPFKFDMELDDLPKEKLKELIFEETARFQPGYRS

Compound	inhibition at 5 µg/mL [1, 10]	IC50 [2]	IC50 [4]	IC50 [5]	IC50 [3]	IC50 [6]	IC50 [7]	IC50 [8]	further results
CCCCCCCCCCCCC/C=C/[C@@H](O)[C@H](CO)N(C)C [dimethylsphingosine, reference compound]	–	–	–	–	–	–	–	–	inhibition of SK activity by positive control ([1]; at concentrations above 25 μM): completely inhibited
O=C(N/N=C/c1c(O)ccc2ccccc12)c1cc(-c2ccc3ccccc3c2)n[nH]1 [Compound 2, 5-Naphthalen-2-yl-2H-pyrazole-3-carboxylic acid (2-hydroxy-naphthalen-1-ylmethylene)-hydrazide]	–	11 ± 1 µM	> 60 µM	> 60 µM	0.4 µM	0.8 ± 1.3 µM	1.1 ± 1.2 µM	2.9 ± 2 µM	fold less potent toward ERK2 than SK ([2]; ERK2 versus SK): 10 fold; IC50 [1]: 1.2 ± 0.3 µM; inhibition at 5 µg/mL [1]: 85%
CCc1cc2c(s1)[S][Zn]1([N]=C2)[N]=Cc2cc(CC)sc2[S]1 [Compound 12]	–	–	–	–	–	–	–	–	inhibition at 5 µg/mL [1]: 87%
O=C1/C(=C/c2ccc(O)c(O)c2)Oc2ccccc21 [Compound 5, 2-(3,4-Dihydroxy-benzylidene)-benzofuran-3-one]	–	80 ± 4 µM	> 60 µM	–	–	–	–	–	difference in body weights versus control group [9]: No significant difference; tumor growth decreased versus control animals ([9]; day 18, volume relative to day 1): > 50%; activity toward ERK2 (in words) [2]: weak activity; activity toward PI3K (in words) [5]: moderate activity
COc1ccc(-n2c(SCC(=O)Nc3nc4ccccc4s3)nc(O)cc2=O)cc1 [Compound 6, N-Benzothiazol-2-yl-2-[4-hydroxy-1-(4-methoxy-phenyl)-6-oxo-1,6-dihydro-pyrimidin-2-ylsulfanyl]-acetamide]	91%	–	–	–	–	–	–	–	–
O=C1/C(=C/c2ccc(O)c(O)c2)Sc2ccccc21 [Compound 4, 2-(3,4-Dihydroxy-benzylidene)-benzo [b] thiophen-3-one]	89%	40 ± 5 µM	> 60 µM	7 ± 2 µM	1 ± 1.7 µM	1.2 ± 2.4 µM	7.8 ± 2 µM	1.8 ± 1.1 µM	activity toward ERK2 (in words) [2]: weak activity; activity toward PI3K (in words) [5]: moderate activity; IC50 [1]: 0.6 ± 0.1 µM
Oc1ccc(Nc2nc(-c3ccc(Cl)cc3)cs2)cc1 [Compound 3, 4-[4-(4-Chloro-phenyl)-thiazol-2-ylamino]-phenol]	99%	> 60 µM	> 60 µM	> 60 µM	1.2 ± 1.3 µM	1.3 ± 1.1 µM	4.6 ± 1.6 µM	0.9 ± 1.8 µM	activity toward ERK2 (in words) [2]: no inhibition was seen; inhibition of PKCα (in words) [4]: no inhibition was seen; activity toward PI3K (in words) [5]: no inhibition was seen

Second part, led by results:

inhibition at 5 µg/mL [1, 10]	IC50 [2]	IC50 [4]	IC50 [5]	Compound	IC50 [3]	IC50 [6]	IC50 [7]	IC50 [8]	further results
98%	–	–	–	Cc1cc2nc3s/c(=C\c4cc(I)cc(I)c4O)c(=O)n3c2cc1C [Compound 8, 2-(2-Hydroxy-3,5-diiodo-benzylidene)-6,7-dimethyl-benzo[4,5] imidazo [2,1-b] thiazol-3-one]	–	–	–	–	–
91%	–	–	–	O=S(=O)(c1ccc(O)cc1)c1ccc(O)c(C23CC4CC(CC(C4)C2)C3)c1 [Compound 7, 2-(1-adamantyl)-4-[(4-oxidophenyl)sulfonyl]benzenolate disodium salt]	–	–	–	–	–
94%	–	–	–	N#C/C(=C\c1ccc(O)c(O)c1)c1nc(-c2ccc3c(c2)OCO3)cs1 [Compound 9, 2-(4-Benzo[1,3]dioxol-5-yl-thiazol-2-yl)-3-(3,4-dihydroxy-phenyl)-acrylonitrile]	–	–	–	–	–
99%	26 ± 2 µM	> 60 µM	42 ± 10 µM	COc1ccc(N2C(=O)/C(=C\c3ccc(O)cc3O)SC2=S)cc1 [Compound 1, 5-(2,4-Dihydroxy-benzylidene)-3-(4-methoxy-phenyl)-2-thioxo-thiazolidin-4-one]	6.8 ± 1.5 µM	6.2 ± 1.5 µM	5.8 ± 1.5 µM	24.6 ± 1.9 µM	IC50 [1]: 2.5 ± 0.7 µM
98%	–	–	–	O=C(/C=C(O)/C(O)=C/C(=O)c1ccccc1)c1ccccc1 [Compound 11, 3,4 -Dihydroxy-1,6-diphenyl-hexa-2,4-diene-1,6-dione]	–	–	–	–	–
81%	–	–	–	CCOc1ccc2c(c1)NC(C)(C)c1ss/c(=N/c3ccc(O)cc3)c1-2 [Compound 10, 4-(7-Ethoxy-4,4-dimethyl-4,5-dihydro-2,3-dithia-5-aza-cyclopenta [α]naphthalen-1-ylideneamino)-phenol]	–	–	–	–	–

— patent US7220764B2, “Sphingosine kinase inhibitors” (The Pennsylvania State University Research Foundation, priority 2002, dated 2007)
